US4337265A, “Cyclohepta[b]pyrrole derivatives” (Ayerst, McKenna & Harrison Inc., priority 1981, dated 1982)

Legend:
[1] = target: T1, aldose reductase (Bos taurus, UniProt P16116); assay: in vitro aldose reductase inhibition (modified Hayman and Kinoshita procedure; enzyme from bovine lens); type: biochemical; conditions: read-out: % Inhibition At Different Molar Concentrations (in vitro); for inhibition at 10 µM: molar concentration 10^-5; for inhibition at 1 µM: molar concentration 10^-6; for inhibition at 0.1 µM: molar concentration 10^-7
T1 construct: preparation of the enzyme from bovine lens; from tissue; host or cells: bovine lens
Method: In the present case the procedure of Hayman and Kinoshita is modified in that the final chromatography step is omitted in the preparation of the enzyme from bovine lens. The following results were obtained when the foregoing listed compounds of formula I were evaluated in the above in vitro test.

[2] = hygroscopicity of the salt; type: physicochemical; conditions: disodium salt
[3] = tested on: aldose reductase; conditions: literature report; cited from earlier work

| SMILES | inhibition at 10 µM [1] | inhibition at 1 µM [1] | inhibition at 0.1 µM [1] | hygroscopicity [2] | aldose reductase inhibition (in words) [3] |
| --- | --- | --- | --- | --- | --- |
| O=C(O)Cn1c2cccccc-2c(C(=O)O)c1=S [Example 5, 3-Carboxy-1,2-dihydro-2-thioxocyclohepta[b]pyrrole-1-acetic Acid] | 93% | 85% | 47% |  |  |
| O=C(O)Cn1c2ccc(Cl)ccc-2c(C(=O)O)c1=O [Example 9, 3-Carboxy-6-chloro-1,2-dihydro-2-oxocyclohepta[b]pyrrole-1-acetic Acid] | 85% | 78% | 36% |  |  |
| CCOC(=O)c1c2ccc(Cl)ccc-2n(CC(=O)O)c1=O [Example 10, 6-Chloro-3-(ethoxycarbonyl)-1,2-dihydro-2-oxocyclohepta[b]pyrrole-1-acetic Acid] | 76% | 34% | 9% |  |  |
| O=C(O)Cn1c2cccccc-2c(C(=O)O)c1=O [Example 2, 3-Carboxy-1,2-dihydro-2-oxocyclohepta[b]pyrrole-1-acetic Acid] | 88% | 82% | 44% |  |  |
| CCc1c2cccccc-2n(CC(=O)O)c1=O [Example 8, 3-Ethyl-1,2-dihydro-2-oxocyclohepta[b]pyrrole-1-acetic Acid] | 60% | 19% |  |  |  |
| O=C(O)C[n+]1cc(C(=O)O)c2cccccc1-2 [3-Carboxy-1-(carboxymethyl)-cyclohepta[b]pyrrolium Chloride] | 80% | 37% | 13% |  |  |
| N#Cc1c2cccccc-2n(CC(=O)O)c1=O [Example 12, 3-Cyano-1,2-dihydro-2-oxocyclohepta[b]pyrrole-1-acetic Acid] | 88% | 82% | 48% |  |  |
| CC(=O)c1c2ccc(Cl)ccc-2n(CC(=O)O)c1=O [Example 11, 3-Acetyl-6-chloro-1,2-dihydro-2-oxocyclohepta[b]pyrrole-1-acetic Acid] | 85% | 52% | 11% |  |  |
| CN(CC(=O)O)C(=O)c1c2ccc(Cl)ccc-2n(CC(=O)O)c1=O [Example 15, 6-Chloro-3-[(N-carboxymethyl-N-methyl)amino]carbonyl-1,2-dihydro-2-oxocyclohepta[b]pyrrole-1-acetic Acid] |  |  |  | hydroscopic |  |
| O=C(O)CN1C(=O)c2cccc3cccc(c23)C1=O [1,3-Dioxo-1H-benz[de]isoquinoline-2(3H)-acetic acid] |  |  |  |  | effective inhibitor of aldose reductase |
| O=C(O)Cn1c2cccccc-2cc1=O [Example 3, 1,2-Dihydro-2-oxocyclohepta[b]pyrrole-1-acetic Acid] | 80% | 45% | 9% |  |  |
| CC(C)(C)C(=O)OCOC(=O)Cn1c2cccccc-2c(C(=O)OCOC(=O)C(C)(C)C)c1=O [Example 6, 1,2-Dihydro-3-[(2,2-dimethyl-1-oxopropoxy)methoxycarbonyl]-2-oxo-cyclohepta[b]pyrrole-1-acetic Acid (2,2-Dimethyl-1-oxopropoxy)methyl Ester] | 75% | 44% | 9% |  |  |
| NC(=O)c1c2cccccc-2n(CC(=O)O)c1=O [Example 13, 3-(Aminocarbonyl)-1,2-dihydro-2-oxocyclohepta[b]pyrrole-1-acetic Acid] | 73% | 28% | 7% |  |  |
| CCOC(=O)c1c2cccccc-2n(CC(=O)O)c1=O [Example 4, 3-(Ethoxycarbonyl)-1,2-dihydro-2-oxocyclohepta[b]pyrrole-1-acetic Acid] | 73% | 26% |  |  |  |
| CC(=O)c1c2cccccc-2n(CC(=O)O)c1=O [Example 7, 3-Acetyl-1,2-dihydro-2-oxocyclohepta[b]pyrrole-1-acetic Acid] | 76% | 26% | 3% |  |  |
| O=C1NC(=O)[C@@]2(CCOc3ccc(F)cc32)N1 [sorbinil, (S)-6-Fluoro-2,3-dihydrospiro(4H-1-benzopyran-4,4'-imidazolidine)-2',5'-dione] |  |  |  |  | aldose reductase inhibiting properties |
